Values quoted from earlier work, collected in patent US10995093B2, “Synthesis of 2′-fluoro-6′-methylene-carbocyclic adenosine (FMCA) and 2′-fluoro-6′methylene-carbocyclic guanosine (FMCG)” (UNIVERSITY OF GEORGIA RESEARCH FOUNDATION, INC., priority 2016, dated 2021).
“Also recorded” adds a separate entry of the source.

Experiments:
[1] = no significant toxicity observed up to 100 μM
[2] = system: lamivudine, adefovir, and double lamivudine/entecavir-resistant mutants; details: drug-resistant mutants
[3] = system: lamivudine/entecavir-resistant clone (L180M+M204V+S202G)
[4] = system: wild-type HBV

## C=C1[C@@H](n2cnc3c(N)ncnc32)[C@@H](F)[C@H](O)[C@H]1CO [FMCA, (1R,3R,5R)-3-(6-amino-9H-purin-9-yl)-2-fluoro-5-(hydroxymethyl)-4-methylenecyclopentanol]
[1]
  mitochondrial and cellular toxicity, concentration up to which no significant toxicity was observed: > 100 µM
[2]
  activity against lamivudine, adefovir, and double lamivudine/entecavir-resistant mutants: significant activity
[3]
  antiviral activity against lamivudine/entecavir-resistant clone: potential antiviral activity
[4]
  activity against wild-type HBV: significant activity; also recorded: potential antiviral activity
